Experimental data reported in US20210106567A1, “COMPOSITIONS AND METHODS FOR INHIBITING CARP-1 BINDING TO NEMO” (United States Government As Represented By The Department …, priority 2019, published 2021).
pIC50: −log10 of the molar value.

Experiments:
HeLa NEMO ko cells = experiment: MTT cell viability; assay type: cell-based, human
MTT cell viability [1] = assay type: cell-based; details: human, wild-type HeLa cells; read-out: reduction in the viabilities
4T1 TNBC cells = experiment: MTT cell viability; assay type: cell-based, murine; details: Mus musculus, 72 h
Procedure: (§1) The murine TNBC cell line 4T1 that was derived from a spontaneously arising BALB/c mammary tumor were obtained from the Karmanos Cancer Institute (KCl), and were maintained in culture (Cheriyan et al. (2016) Oncotarget 7, 73370-73388). […] The cell culture media were also supplemented with 10% FBS, 100 units/ml of penicillin, and 100 μg/ml of streptomycin, and the cells were maintained at 37° C. and 5% CO2. For cell growth and MTT studies, the cells were cultured in fresh media with 5%-10% FBS prior to their treatments with various agents.
(§2) Cell Viability, Immunoprecipitation and Western Blot assays: 500-1000 cells were seeded in each well of 96 well plate and then either untreated (control) or treated with various agents for noted times. After treatment, MTT reagent was added at 0.5 mg/ml concentration for 2-4 hours at 37° C. DMSO was added to solubilize formazan and the plate was read at 570 nm in a plate reader. The histograms indicating levels of cell viability were generated by plotting the net absorbances (Rishi et al. (2003) J Biol Chem 278, 33422-33435; and Rishi et al. (2006) J Biol Chem 281, 13188-13198).

MTT cell viability [2] = assay type: cell-based, murine; details: mouse, 4T1 TNBC cells; 1.0, 2.5, 5.0, or 10.0 μM over 24 h; read-out: loss of viability
Procedure: as §1, §2

4T1 TNBC tumors = experiment: 4T1 TNBC syngeneic tumor efficacy study in Balb/c mice; assay type: in vivo, mouse
Procedure: Establishment of TNBC cell-derived xenografts in Syngeneic mice: Generation of 4T1 TNBC cell-derived sub-cutaneous xenografts in Balb/c mice were performed (Cheriyan et al. (2016) Oncotarget 7, 73370-73388; and Cheriyan et al. (2017) Oncotarget 8, 104928-104945). BALB/cAnNCr, 6-8-weeks old, female mice were purchased from Charles River Laboratories (Horsham, Pa.). Following suitable acclimation of animals, 1×10^6 4T1 TNBC cells were re-suspended in 200 μl of sterile saline, and implanted in the flanks using a 27-gauge needle. Tumors were allowed to grow to 500-1000 mg (˜10 days), and the aseptically harvested, minced into 3-4 mm^3 (30 mg) fragments and transplanted SC into naïve recipient mice using a standard 12 gauge trocar to serially maintain the tumor in vivo. For efficacy studies, tumors serially maintained in vivo were aseptically harvested and minced into 3-4 mm^3 (30 mg) fragments, then bilaterally transplanted subcutaneously along the flanks using a standard 12 gauge trocar. […] For the efficacy studies, SNI-1 was formulated in 8% DMSO (v/v) and 8% Cremophor (v/v) in cell grade water, pH4 as diluent.
Clinical grade ADR stock (2 mg/mL) was diluted to the appropriate concentration with cell grade water; pH4 and clinical grade CIS (1 mg/ml) diluted with USP 0.9% saline; pH6). Mice were monitored daily for changes in condition and body weight. Tumors were measured three times weekly by caliper and tumor volume (mg) was calculated using the following formula: (A×B2)/2 where A and B are the tumor length and width (in mm), respectively. […] Efficacy was also assessed quantitatively using tumor growth delay (T−C) defined as the difference between the median time (in days) required for the treatment group tumors (T) to reach 1000 mg and the median time (days) for the control group tumors to reach the same volume. Post last treatment, tumor tissue and samples from various organs (spleen, liver, kidney, heart, bone, and lungs) were collected. Additionally, the whole blood samples were obtained from a representative tumor-bearing mouse from each group via terminal cardiac puncture. Immuno-histochemical analyses of the tumor and tissue samples were performed for expression of activated RelA (serine 536 phosphorylated p65), total RelA, cleaved caspase-3, and CARP-1 proteins. The levels of pro-inflammatory cytokines in the sera were analyzed by sandwich ELISA assays following methods detailed herein (Cheriyan et al. (2016) Oncotarget 7, 73370-73388; and Cheriyan et al. (2017) Oncotarget 8, 104928-104945).

[3] = system: RENCA renal cancer tumors; details: mouse, in vivo
Procedure: The subcutaneous tumor bearing mice were treated with indicated agents. […] The end-points for assessing anti-tumor activity involved qualitative determination via tumor growth inhibition (% T/C) where T is the median tumor volume of the treated mice and C is the median tumor volume of the Control mice on any given day of measurement.

[4] = system: CARP-1 levels, cleavage of PARP or caspase-3; experiment: Western blot for apoptosis markers; assay type: cell-based
Excerpt: The cells were lysed to prepare protein extracts.

## Cc1ccc(-n2nnnc2SCC(=O)c2ccc(O)c(O)c2)cc1 [SNI-1, 1-(3,4-dihydroxyphenyl)-2-{(1-(4-methylphenyl)-1H-tetrazol-5-yl)thio}ethanone]
HeLa NEMO ko cells
  loss of viabilities versus similarly treated wild-type HeLa cells: further significant loss of viabilities
MTT cell viability [1]
  cytotoxicity: ~30%
4T1 TNBC cells
  pIC50: 5.35 to 5.40
MTT cell viability [2]
  cytotoxicity at 24 h: 10 to 20%
4T1 TNBC tumors; 70 mg/kg/dose i.p. QD 1-13
  inhibition of tumor growth: absent to minimal inhibition of tumor growth
  toxicities in the animals: did not provoke toxicities
4T1 TNBC tumors; mouse, in vivo
  activated caspase-3 in normal tissues (immuno-histochemistry): failed to show presence of activated caspase-3
  hematoxylin and eosin staining of lungs, spleen, heart, liver, kidneys, and bone marrow: did not indicate microscopic alterations
4T1 TNBC tumors; versus untreated control animal
  cleaved caspase-3 in tumors (immuno-histochemistry): strong presence of cleaved caspase-3
[3]
  weight loss in animals: 0.4-4.0%
[4]
  apoptosis (elevated CARP-1 levels, cleavage of PARP or caspase-3): stimulation of apoptosis
